# Results reported in patent US10544143B2, “4-azaindole compounds” (BRISTOL-MYERS SQUIBB COMPANY, priority 2017, dated 2020).
# Columns and labels:
# human TLR8 = human TLR8 (Homo sapiens (Human), UniProt Q9NR97); experiment: TLR8 inhibition reporter assay (HEK-Blue SEAP); conditions: read-out: TLR8 IC50; HEK-Blue cells overexpressing human TLR8, SEAP reporter, R848 15.9 μM;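 note: SEAP driven by IFN-β minimal promoter carrying NF-κB and AP-1 sites, compounds dosed 0.05 nM to 50 µM for 22 h, inhibition scaled between agonist-plus-DMSO and reference-inhibitor wells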
# MRL/lpr mice = experiment: MRL/lpr model of SLE; type: in vivo, mouse; conditions: vs vehicle; for IL-10, percent reduction in disease severity / IL-12p40, percent reduction in disease severity: plasma
# Protocol: Male MRL/lpr mice of 12-14 weeks age were screened and randomized based on the titres of anti-dsDNA antibodies and urinary NGAL (Neutrophil Gelatinase Associated Lipocalin). Mice were treated orally, once daily for 8 weeks with vehicle or test compound. The effect of test compound on disease severity was assessed by measuring end points including proteinuria, urinary-NGAL, urinary TIMP1, blood urea nitrogen (BUN), anti-dsDNA Ab, anti-smRNP Ab titer, and plasma levels of IL10 and IL12p40. At the end of experiment, all mice were euthanized by CO2 asphyxiation and kidney samples were subjected for histology. To calculate the significance of test compound treated group vs. vehicle control group, one way ANOVA with Dunnett's test was performed. Percent reduction in disease severity was calculated for each parameter, for test compound treated group vs vehicle control group.
# TLR7 = TLR7 (Mus musculus (Mouse), UniProt P58681); experiment: In vivo mouse TLR7 PD model (gardiquimod challenge, plasma IL-6 and IFN-alpha); conditions: C57BL/6 mice, plasma 90 min after gardiquimod i.p., vs vehicle
# Protocol: In Vivo Mouse TLR7 PD Model:
# Adult male C57BL/6 mice were used for the experiments. Mice (7 to 10 per group) were randomized into different treatment groups based on body weight. Mice from the respective treatment groups were administered orally with vehicle or test compound. Thirty min after the oral administration of vehicle or test compound, mice were challenged with intraperitoneal injection of gardiquimod for TLR7 PD model. Ninety minutes after gardiquimod injection, mice were bled under isoflurane anaesthesia and plasma IL-6 and IFN-alpha levels were estimated by using commercially available ELISA kit (BD Biosciences, PBL Life Sciences). At the end of experiment, mean cytokine data was plotted and one way ANOVA with Dunnett's test was performed to calculate the significance of test compound treated group vs. vehicle control group. Percent inhibition of cytokine induction was calculated for test compound treated group vs vehicle control group.
# human TLR9 = human TLR9 (Homo sapiens (Human), UniProt Q9NR96); experiment: TLR9 inhibition reporter assay (HEK-Blue SEAP); conditions: read-out: TLR9 IC50; HEK-Blue cells overexpressing human TLR9, SEAP reporter, ODN2006 5 nM;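 note: SEAP driven by an IFN-β minimal promoter with NF-κB and AP-1 sites, read after 22 h, compounds dosed 0.05 nM–50 µM, inhibition scaled between agonist plus DMSO and reference-inhibitor wells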
# [1] = 0.1 mg/kg oral once daily 8 weeks
# [2] = 0.3 mg/kg oral once daily 8 weeks
# [3] = 1 mg/kg oral once daily 8 weeks
# [4] = 3 mg/kg oral once daily 8 weeks
# [5] = 10 mg/kg oral once daily 8 weeks
# Sequence of TLR7 (P58681 27-1050): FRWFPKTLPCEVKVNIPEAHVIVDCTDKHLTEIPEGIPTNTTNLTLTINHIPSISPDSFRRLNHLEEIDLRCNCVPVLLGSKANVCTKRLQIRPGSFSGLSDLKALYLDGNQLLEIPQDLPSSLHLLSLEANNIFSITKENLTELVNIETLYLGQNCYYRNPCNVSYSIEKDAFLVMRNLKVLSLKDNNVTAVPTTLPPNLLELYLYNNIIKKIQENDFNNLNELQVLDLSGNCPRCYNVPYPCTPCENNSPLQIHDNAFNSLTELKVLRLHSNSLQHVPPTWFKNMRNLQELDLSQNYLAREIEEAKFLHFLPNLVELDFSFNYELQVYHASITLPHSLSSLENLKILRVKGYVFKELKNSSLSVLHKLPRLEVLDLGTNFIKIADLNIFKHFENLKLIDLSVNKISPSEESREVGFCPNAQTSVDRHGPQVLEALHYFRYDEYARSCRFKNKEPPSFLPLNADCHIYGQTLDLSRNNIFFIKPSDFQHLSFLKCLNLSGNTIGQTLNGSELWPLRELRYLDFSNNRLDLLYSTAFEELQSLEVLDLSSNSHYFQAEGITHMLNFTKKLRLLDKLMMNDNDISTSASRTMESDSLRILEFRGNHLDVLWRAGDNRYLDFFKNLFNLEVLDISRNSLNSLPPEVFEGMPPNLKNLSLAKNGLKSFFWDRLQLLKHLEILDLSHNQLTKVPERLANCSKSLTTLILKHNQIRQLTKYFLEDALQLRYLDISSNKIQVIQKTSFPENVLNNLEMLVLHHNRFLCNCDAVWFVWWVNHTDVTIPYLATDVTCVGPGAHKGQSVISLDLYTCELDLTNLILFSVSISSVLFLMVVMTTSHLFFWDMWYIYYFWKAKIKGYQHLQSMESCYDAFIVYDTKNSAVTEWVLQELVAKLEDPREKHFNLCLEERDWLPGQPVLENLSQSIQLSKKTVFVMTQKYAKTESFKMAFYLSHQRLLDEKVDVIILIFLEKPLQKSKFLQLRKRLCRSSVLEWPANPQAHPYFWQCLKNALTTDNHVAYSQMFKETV
# Sequence of human TLR9 (Q9NR96 26-1032): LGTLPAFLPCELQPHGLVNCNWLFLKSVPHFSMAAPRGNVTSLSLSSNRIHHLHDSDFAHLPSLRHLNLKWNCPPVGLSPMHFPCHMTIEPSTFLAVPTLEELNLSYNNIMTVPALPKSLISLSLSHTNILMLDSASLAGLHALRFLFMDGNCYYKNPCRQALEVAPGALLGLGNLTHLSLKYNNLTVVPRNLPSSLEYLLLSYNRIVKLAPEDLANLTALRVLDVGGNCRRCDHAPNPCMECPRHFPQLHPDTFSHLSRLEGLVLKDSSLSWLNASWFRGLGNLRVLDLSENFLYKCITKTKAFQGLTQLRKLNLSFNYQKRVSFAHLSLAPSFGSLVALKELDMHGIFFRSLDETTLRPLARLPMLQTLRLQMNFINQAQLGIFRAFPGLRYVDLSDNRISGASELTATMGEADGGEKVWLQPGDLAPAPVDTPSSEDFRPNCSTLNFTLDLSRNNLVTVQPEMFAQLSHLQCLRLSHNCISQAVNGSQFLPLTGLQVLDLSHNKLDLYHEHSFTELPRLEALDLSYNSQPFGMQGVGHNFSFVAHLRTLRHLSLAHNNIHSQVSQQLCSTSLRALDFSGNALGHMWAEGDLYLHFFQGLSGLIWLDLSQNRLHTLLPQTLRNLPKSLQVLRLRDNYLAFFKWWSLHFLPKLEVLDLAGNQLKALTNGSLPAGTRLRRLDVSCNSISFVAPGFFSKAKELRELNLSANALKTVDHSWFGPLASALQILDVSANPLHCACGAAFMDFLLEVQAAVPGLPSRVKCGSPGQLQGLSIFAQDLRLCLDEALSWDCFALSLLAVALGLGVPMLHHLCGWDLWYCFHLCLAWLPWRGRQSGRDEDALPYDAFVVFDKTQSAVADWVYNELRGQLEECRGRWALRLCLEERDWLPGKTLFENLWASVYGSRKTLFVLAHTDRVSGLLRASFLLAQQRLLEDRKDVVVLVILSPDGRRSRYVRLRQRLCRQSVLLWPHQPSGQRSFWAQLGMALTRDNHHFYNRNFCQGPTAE
# Sequence of human TLR8 (Q9NR97 27-1041): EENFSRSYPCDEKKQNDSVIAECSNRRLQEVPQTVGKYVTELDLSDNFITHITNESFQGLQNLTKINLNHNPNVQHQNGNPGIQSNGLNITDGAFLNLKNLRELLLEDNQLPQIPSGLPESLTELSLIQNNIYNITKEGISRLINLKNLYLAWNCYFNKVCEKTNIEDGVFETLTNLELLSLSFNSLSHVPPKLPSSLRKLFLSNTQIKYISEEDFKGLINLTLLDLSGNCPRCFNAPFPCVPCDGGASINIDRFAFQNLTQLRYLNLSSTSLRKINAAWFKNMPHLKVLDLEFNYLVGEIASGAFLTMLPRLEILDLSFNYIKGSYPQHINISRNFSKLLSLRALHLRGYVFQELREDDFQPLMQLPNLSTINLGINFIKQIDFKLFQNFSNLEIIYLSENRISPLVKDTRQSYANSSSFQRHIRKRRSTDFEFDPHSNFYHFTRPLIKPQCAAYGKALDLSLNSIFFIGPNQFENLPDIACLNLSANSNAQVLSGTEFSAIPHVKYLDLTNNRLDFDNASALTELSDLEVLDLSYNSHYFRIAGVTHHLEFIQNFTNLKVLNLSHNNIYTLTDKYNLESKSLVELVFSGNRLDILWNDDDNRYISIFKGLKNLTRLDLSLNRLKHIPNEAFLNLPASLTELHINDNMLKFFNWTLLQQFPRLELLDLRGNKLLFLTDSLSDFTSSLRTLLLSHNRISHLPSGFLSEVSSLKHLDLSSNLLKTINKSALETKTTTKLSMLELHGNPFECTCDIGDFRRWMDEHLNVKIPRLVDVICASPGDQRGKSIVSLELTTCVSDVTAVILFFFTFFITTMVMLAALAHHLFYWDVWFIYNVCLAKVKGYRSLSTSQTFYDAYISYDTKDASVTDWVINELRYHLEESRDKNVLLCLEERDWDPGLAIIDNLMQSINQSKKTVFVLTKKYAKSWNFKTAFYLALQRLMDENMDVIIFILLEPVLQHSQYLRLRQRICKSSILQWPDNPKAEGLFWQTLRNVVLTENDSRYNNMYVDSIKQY
structure (smiles),measurement,setting,value
"Cc1c(-c2[nH]c3ccc(C4CCC(N5CC6(C5)CS(=O)(=O)C6)CC4)nc3c2C(C)C)cn2ncnc2c1C (centres unmarked) [Example 438, 6-((1r,4r)-(4-(2-(7,8-dimethyl-[1,2,4]triazolo[1,5-a]pyridin-6-yl)-3-isopropyl-1H-pyrrolo[3,2-b]pyridin-5-yl)cyclohexyl)-2-thia-6-azaspiro[3.3]heptane 2,2-dioxide]",IC50,human TLR8,0.39 nM
same,"IL-10, percent reduction in disease severity",MRL/lpr mice; [1],0%
same,"IL-12p40, percent reduction in disease severity",MRL/lpr mice; [1],16%
same,"Anti-SmRNP Ab titer, percent reduction in disease severity",MRL/lpr mice; [1],23%
same,"Anti-dsDNA Ab titer, percent reduction in disease severity",MRL/lpr mice; [1],0%
same,"Proteinuria, percent reduction in disease severity",MRL/lpr mice; [1],31%
same,"Urinary NGAL, percent reduction in disease severity",MRL/lpr mice; [1],34%
same,"Urinary TIMP1, percent reduction in disease severity",MRL/lpr mice; [1],0%
same,"IL-10, percent reduction in disease severity",MRL/lpr mice; [2],18%
same,"IL-12p40, percent reduction in disease severity",MRL/lpr mice; [2],33%
same,"Anti-SmRNP Ab titer, percent reduction in disease severity",MRL/lpr mice; [2],44%
same,"Anti-dsDNA Ab titer, percent reduction in disease severity",MRL/lpr mice; [2],28%
same,"Proteinuria, percent reduction in disease severity",MRL/lpr mice; [2],80%
same,"Urinary NGAL, percent reduction in disease severity",MRL/lpr mice; [2],58%
same,"Urinary TIMP1, percent reduction in disease severity",MRL/lpr mice; [2],42%
same,"IL-10, percent reduction in disease severity",MRL/lpr mice; [3],19%
same,"IL-12p40, percent reduction in disease severity",MRL/lpr mice; [3],26%
same,"Anti-SmRNP Ab titer, percent reduction in disease severity",MRL/lpr mice; [3],49%
same,"Anti-dsDNA Ab titer, percent reduction in disease severity",MRL/lpr mice; [3],39%
same,"Proteinuria, percent reduction in disease severity",MRL/lpr mice; [3],73%
same,"Urinary NGAL, percent reduction in disease severity",MRL/lpr mice; [3],63%
same,"Urinary TIMP1, percent reduction in disease severity",MRL/lpr mice; [3],54%
same,"IL-10, percent reduction in disease severity",MRL/lpr mice; [4],21%
same,"IL-12p40, percent reduction in disease severity",MRL/lpr mice; [4],28%
same,"Anti-SmRNP Ab titer, percent reduction in disease severity",MRL/lpr mice; [4],43%
same,"Anti-dsDNA Ab titer, percent reduction in disease severity",MRL/lpr mice; [4],44%
same,"Proteinuria, percent reduction in disease severity",MRL/lpr mice; [4],82%
same,"Urinary NGAL, percent reduction in disease severity",MRL/lpr mice; [4],67%
same,"Urinary TIMP1, percent reduction in disease severity",MRL/lpr mice; [4],56%
same,"IL-10, percent reduction in disease severity",MRL/lpr mice; [5],22%
same,"IL-12p40, percent reduction in disease severity",MRL/lpr mice; [5],41%
same,"Anti-SmRNP Ab titer, percent reduction in disease severity",MRL/lpr mice; [5],51%
same,"Anti-dsDNA Ab titer, percent reduction in disease severity",MRL/lpr mice; [5],37%
same,"Proteinuria, percent reduction in disease severity",MRL/lpr mice; [5],84%
same,"Urinary NGAL, percent reduction in disease severity",MRL/lpr mice; [5],67%
same,"Urinary TIMP1, percent reduction in disease severity",MRL/lpr mice; [5],79%
same,% inhibition of IFN-alpha,TLR7; 0.003 mg/kg oral,36%
same,% inhibition of IL6,TLR7; 0.003 mg/kg oral,25%
same,% inhibition of IFN-alpha,TLR7; 0.006 mg/kg oral,57%
same,% inhibition of IL6,TLR7; 0.006 mg/kg oral,41%
same,% inhibition of IFN-alpha,TLR7; 0.03 mg/kg oral,67%
same,% inhibition of IL6,TLR7; 0.03 mg/kg oral,56%
same,% inhibition of IFN-alpha,TLR7; 0.15 mg/kg oral,96%
same,% inhibition of IL6,TLR7; 0.15 mg/kg oral,78%
same,% inhibition of IFN-alpha,TLR7; 0.3 mg/kg oral,98%
same,% inhibition of IL6,TLR7; 0.3 mg/kg oral,82%
same,IC50,human TLR9,1460 nM
